{
  "source": "ChEMBL document CHEMBL3621086",
  "about": "“Synthesis of -brominated phosphonates and their application as phosphate bioisosteres” (Medchemcomm, 2014)",
  "key": {"[1]": {"biological_target": "Lysophosphatidic acid receptor 2 (Homo sapiens, UniProt Q9HBW0)", "sequence (Q9HBW0 whole entry)": "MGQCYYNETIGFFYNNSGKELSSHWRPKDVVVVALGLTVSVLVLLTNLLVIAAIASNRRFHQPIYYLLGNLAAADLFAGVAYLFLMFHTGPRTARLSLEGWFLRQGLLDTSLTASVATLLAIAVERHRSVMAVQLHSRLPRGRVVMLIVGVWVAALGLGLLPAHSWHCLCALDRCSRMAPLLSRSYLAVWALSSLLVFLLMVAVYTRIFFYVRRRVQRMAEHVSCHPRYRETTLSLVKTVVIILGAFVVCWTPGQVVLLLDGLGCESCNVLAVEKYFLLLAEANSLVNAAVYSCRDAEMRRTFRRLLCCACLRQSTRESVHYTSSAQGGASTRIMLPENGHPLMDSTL", "experiment": "Antagonist activity at human LPA2 receptor expressed in […] cells assessed as inhibition of LPA-induced Ca2+ mobilization by FURA-2AM dye based fluorescence assay", "type": "functional, cell-based"}, "[2]": {"biological_target": "Lysophosphatidic acid receptor 4 (Homo sapiens, UniProt Q99677)", "sequence (Q99677 whole entry)": "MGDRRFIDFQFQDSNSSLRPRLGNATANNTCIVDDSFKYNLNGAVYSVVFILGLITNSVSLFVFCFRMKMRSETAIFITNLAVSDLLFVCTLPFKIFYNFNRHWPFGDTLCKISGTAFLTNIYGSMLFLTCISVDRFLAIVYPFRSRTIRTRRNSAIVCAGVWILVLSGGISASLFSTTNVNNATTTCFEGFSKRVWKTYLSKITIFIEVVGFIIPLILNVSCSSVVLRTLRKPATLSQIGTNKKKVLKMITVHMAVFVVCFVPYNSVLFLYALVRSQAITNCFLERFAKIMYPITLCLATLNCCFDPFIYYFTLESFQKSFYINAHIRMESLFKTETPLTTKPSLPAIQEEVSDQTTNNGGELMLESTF", "experiment": "Antagonist activity at human LPA4 receptor expressed in CHO cells assessed as inhibition of LPA-induced Ca2+ mobilization by FURA-2AM dye based fluorescence assay", "type": "functional, cell-based"}, "[3]": {"biological_target": "Lysophosphatidic acid receptor 1 (Homo sapiens, UniProt Q92633)", "sequence (Q92633 whole entry)": "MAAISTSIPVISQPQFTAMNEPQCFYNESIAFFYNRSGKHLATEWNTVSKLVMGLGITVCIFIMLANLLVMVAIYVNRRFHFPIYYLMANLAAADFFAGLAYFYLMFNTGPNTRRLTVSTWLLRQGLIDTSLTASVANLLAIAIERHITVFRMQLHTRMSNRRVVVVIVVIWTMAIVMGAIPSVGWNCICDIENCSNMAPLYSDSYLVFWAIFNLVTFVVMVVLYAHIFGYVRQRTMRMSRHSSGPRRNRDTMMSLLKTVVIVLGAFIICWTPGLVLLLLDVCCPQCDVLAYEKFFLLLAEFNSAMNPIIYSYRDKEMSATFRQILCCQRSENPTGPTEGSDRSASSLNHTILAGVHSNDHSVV", "experiment": "Antagonist activity at human LPA1 receptor expressed in […] cells assessed as inhibition of LPA-induced Ca2+ mobilization by FURA-2AM dye based fluorescence assay", "type": "functional, cell-based"}, "[4]": {"biological_target": "T1, Lysophosphatidic acid receptor 3 (Homo sapiens, UniProt Q9UBY5)", "T1 sequence (Q9UBY5 whole entry)": "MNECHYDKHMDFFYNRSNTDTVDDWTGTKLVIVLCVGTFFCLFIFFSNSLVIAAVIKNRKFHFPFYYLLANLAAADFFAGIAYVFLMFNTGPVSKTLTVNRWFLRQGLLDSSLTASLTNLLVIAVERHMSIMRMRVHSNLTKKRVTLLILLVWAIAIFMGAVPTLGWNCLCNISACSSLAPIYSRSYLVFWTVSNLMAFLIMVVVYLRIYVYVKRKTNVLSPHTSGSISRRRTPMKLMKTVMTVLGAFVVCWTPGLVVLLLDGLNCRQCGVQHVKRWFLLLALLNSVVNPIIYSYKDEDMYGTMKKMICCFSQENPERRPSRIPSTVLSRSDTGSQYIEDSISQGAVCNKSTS", "experiment": "Antagonist activity at human LPA3 receptor expressed in […] cells assessed as inhibition of LPA-induced Ca2+ mobilization by FURA-2AM dye based fluorescence assay", "type": "functional, cell-based"}, "[5]": {"biological_target": "T2, Purine nucleoside phosphorylase (Homo sapiens, UniProt P00491)", "T2 sequence (P00491 whole entry)": "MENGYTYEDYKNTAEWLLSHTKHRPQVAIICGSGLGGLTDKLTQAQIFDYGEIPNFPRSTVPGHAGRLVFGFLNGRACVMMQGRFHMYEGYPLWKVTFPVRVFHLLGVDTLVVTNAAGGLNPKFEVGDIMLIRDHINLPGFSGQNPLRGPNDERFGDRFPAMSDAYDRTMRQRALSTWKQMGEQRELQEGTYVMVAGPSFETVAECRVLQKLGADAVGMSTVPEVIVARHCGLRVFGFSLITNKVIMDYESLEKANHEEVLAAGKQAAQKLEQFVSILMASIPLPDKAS", "experiment": "Inhibition of human erythrocyte PNP"}, "[6]": {"experiment": "Binding affinity to Yersinia YopH"}, "[7]": {"biological_target": "Transient receptor potential cation channel subfamily V member 1 (Homo sapiens, UniProt Q8NER1)", "sequence (Q8NER1 whole entry)": "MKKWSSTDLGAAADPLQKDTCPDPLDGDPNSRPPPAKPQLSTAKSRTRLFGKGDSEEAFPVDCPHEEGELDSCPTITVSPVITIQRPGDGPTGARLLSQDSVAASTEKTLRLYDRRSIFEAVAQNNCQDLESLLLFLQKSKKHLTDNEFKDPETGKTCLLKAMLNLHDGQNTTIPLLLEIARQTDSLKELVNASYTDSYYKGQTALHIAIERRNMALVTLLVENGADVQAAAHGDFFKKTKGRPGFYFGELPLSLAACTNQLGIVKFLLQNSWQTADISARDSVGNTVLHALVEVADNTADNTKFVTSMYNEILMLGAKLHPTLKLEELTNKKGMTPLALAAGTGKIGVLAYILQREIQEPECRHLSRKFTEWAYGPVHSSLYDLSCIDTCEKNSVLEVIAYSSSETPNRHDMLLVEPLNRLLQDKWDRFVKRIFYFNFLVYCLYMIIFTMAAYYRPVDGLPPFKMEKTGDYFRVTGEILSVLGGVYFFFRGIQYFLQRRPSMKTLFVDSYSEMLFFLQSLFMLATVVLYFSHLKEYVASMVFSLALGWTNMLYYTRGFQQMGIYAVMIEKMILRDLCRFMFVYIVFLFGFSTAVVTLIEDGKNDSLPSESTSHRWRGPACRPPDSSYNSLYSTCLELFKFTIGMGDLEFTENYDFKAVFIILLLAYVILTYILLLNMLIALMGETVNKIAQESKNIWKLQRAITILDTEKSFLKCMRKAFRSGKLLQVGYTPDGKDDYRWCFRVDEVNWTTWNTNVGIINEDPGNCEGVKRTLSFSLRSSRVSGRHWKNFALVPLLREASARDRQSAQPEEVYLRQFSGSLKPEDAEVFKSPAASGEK", "experiment": "Activation of TRPV-1 channel (unknown origin)"}, "[8]": {"test_system": "MDA-MB-231", "experiment": "Inhibition of cell migration in human MDA-MB-231 cells by scratch wound assay", "type": "functional"}, "[9]": {"biological_target": "T3, Autotaxin (Homo sapiens, UniProt Q13822)", "experiment": "Inhibition of recombinant ATX (unknown origin) assessed as inhibition of hydrolysis of fluoregenic lysoPC analogue FS-3 at 10 uM"}, "[10]": {"biological_target": "T3, Autotaxin", "experiment": "Inhibition of recombinant ATX (unknown origin) assessed as inhibition of hydrolysis of fluoregenic lysoPC analogue FS-3"}},
  "data": [
    {"smiles": "CCCCCCCC/C=C\\CCCCCCCC(=O)OC[C@@H](O)CC(Br)P(=O)(O)O", "note": "(some centres not stated)", "values": [
      {"measurement": "Ki", "setting": "[1]", "result": 0.17, "unit": "µM"},
      {"measurement": "Ki", "setting": "[2]", "result": 0.17, "unit": "µM"},
      {"measurement": "Ki", "setting": "[3]", "result": 0.17, "unit": "µM"},
      {"measurement": "Ki", "setting": "[4]", "result": 0.17, "unit": "µM"}
    ]},
    {"smiles": "Nc1nc2c(ncn2CCCCC(F)(F)P(=O)(O)O)c(=O)[nH]1", "values": [
      {"measurement": "Ki", "setting": "[5]", "result": 0.174, "unit": "µM"}
    ]},
    {"smiles": "CCN(CC)c1ccc2c(-c3ccc(S(=O)(=O)[O-])cc3S(=O)(=O)NCc3ccc(C(Br)P(=O)(O)O)cc3)c3ccc(=[N+](CC)CC)cc-3oc2c1", "note": "(configuration not stated)", "values": [
      {"measurement": "Ki", "setting": "[6]", "result": 690, "unit": "µM"}
    ]},
    {"smiles": "O=P(O)(O)C(Br)c1ccccc1", "note": "(configuration not stated)", "values": [
      {"measurement": "Ki", "setting": "[6]", "result": 4100, "unit": "µM"}
    ]},
    {"smiles": "CCCCCCCCCCCCCCCC(=O)OC[C@@H](O)CC(Br)P(=O)(O)O", "note": "(some centres not stated)", "values": [
      {"measurement": "Ki", "setting": "[1]", "result": 0.17, "unit": "µM"},
      {"measurement": "Ki", "setting": "[2]", "result": 0.17, "unit": "µM"},
      {"measurement": "Ki", "setting": "[3]", "result": 0.17, "unit": "µM"},
      {"measurement": "Ki", "setting": "[4]", "result": 0.17, "unit": "µM"}
    ]},
    {"smiles": "O=C(CCCC[C@H]1SC[C@H]2NC(=O)N[C@H]21)NCc1ccc(C(Br)P(=O)(O)O)cc1", "note": "(some centres not stated)", "values": [
      {"measurement": "Ki", "setting": "[6]", "result": 740, "unit": "µM"}
    ]},
    {"smiles": "CCCCCCCC/C=C\\CCCCCCCC(=O)OC[C@@H](O)COP(=O)(O)O", "note": "[LYSOPHOSPHATIDIC ACID]", "values": [
      {"measurement": "Kd", "setting": "[7]", "result": 0.754, "unit": "µM"}
    ]},
    {"smiles": "CCCCCCCCCCCCCCCC(=O)OC[C@@H](O)CC(Br)P(=O)(O)O", "note": "(mixture of isomers) [listing 1 of 2 here]", "values": [
      {"measurement": "Kd", "setting": "[7]", "result": 1.1, "unit": "µM"}
    ]},
    {"smiles": "CCN(CC)c1ccc2c(-c3ccc(S(=O)(=O)NCc4ccc(C(Br)P(=O)(O)O)cc4)cc3S(=O)(=O)[O-])c3ccc(=[N+](CC)CC)cc-3oc2c1", "note": "(configuration not stated)", "values": [
      {"measurement": "Ki", "setting": "[6]", "result": 690, "unit": "µM"}
    ]},
    {"smiles": "CCCCCCCCCCCCCCCC(=O)OC[C@@H](O)C[C@@H](Br)P(=O)(O)O", "values": [
      {"measurement": "inhibition (INH)", "setting": "[8]", "result": 50, "unit": "%"},
      {"measurement": "inhibition", "setting": "[9]", "result": 98, "unit": "%"},
      {"measurement": "IC50", "setting": "[10]", "result": 0.165, "unit": "µM"}
    ]},
    {"smiles": "CCCCCCCCCCCCCCCC(=O)OC[C@@H](O)CC(Br)P(=O)(O)O", "note": "(mixture of isomers) [listing 2 of 2 here]", "values": [
      {"measurement": "inhibition", "setting": "[9]", "result": 98, "unit": "%"}
    ]},
    {"smiles": "CCCCCCCCCCCCCCCC(=O)OC[C@@H](O)C[C@H](Br)P(=O)(O)O", "values": [
      {"measurement": "inhibition (INH)", "setting": "[8]", "result": 50, "unit": "%"},
      {"measurement": "inhibition", "setting": "[9]", "result": 98, "unit": "%"},
      {"measurement": "IC50", "setting": "[10]", "result": 0.022, "unit": "µM"}
    ]}
  ]
}
